According to PubChem BioAssay AID330 (DTP/NCI, 2004):
Values joined by “and” are separate entries in the source; they are usually repeats but may differ in a detail not shown here. Identical values can stand only once. Inconclusive results and toxic doses are left out. Rule for the calls: active = survival T/C of 150% or more; inactive = T/C below 125% in these data.

System: P388 leukemia ip, CD2F1 mice, survival T/C
Assay: NCI In Vivo Anticancer Drug Screen. Data for tumor model P388 Leukemia (intraperitoneal) in CD2F1 (CDF1) mice
Settings: endpoint: median survival time, higher = longer survival
Method in brief: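 Mice carrying the transplanted tumor received test compound or vehicle. Survival was recorded in each group, and the value is the treated-group measurement divided by that of the vehicle-treated control group.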

[1] = dose: 50.0 mg/kg/injection, schedule: Q01DX005 (ip), vehicle: saline with Tween-80
[2] = dose: 100.0 mg/kg/injection, schedule: Q01DX005 (ip), vehicle: saline with Tween-80
[3] = dose: 200.0 mg/kg/injection, schedule: Q01DX005 (ip), vehicle: saline with Tween-80
[4] = dose: 100.0 mg/kg/injection, schedule: Q01DX009 (ip), vehicle: saline with Tween-80
[5] = dose: 200.0 mg/kg/injection, schedule: Q01DX009 (ip), vehicle: saline with Tween-80
[6] = dose: 12.5 mg/kg/injection, schedule: Q01DX009 (ip), vehicle: saline
[7] = dose: 25.0 mg/kg/injection, schedule: Q01DX009 (ip), vehicle: saline
[8] = dose: 50.0 mg/kg/injection, schedule: Q01DX009 (ip), vehicle: saline
[9] = dose: 100.0 mg/kg/injection, schedule: Q01DX009 (ip), vehicle: saline
[10] = dose: 200.0 mg/kg/injection, schedule: Q01DX009 (ip), vehicle: saline
[11] = dose: 50.0 mg/kg/injection, schedule: Q01DX009 (ip), vehicle: saline with Tween-80
[12] = dose: 60.0 mg/kg/injection, schedule: Q01DX005 (ip), vehicle: saline with Tween-80
[13] = dose: 120.0 mg/kg/injection, schedule: Q01DX005 (ip), vehicle: saline with Tween-80
[14] = dose: 240.0 mg/kg/injection, schedule: Q01DX005 (ip), vehicle: saline with Tween-80
[15] = dose: 100.0 mg/kg/injection, schedule: Q01DX001 (ip), vehicle: saline
[16] = dose: 200.0 mg/kg/injection, schedule: Q01DX001 (ip), vehicle: saline

Measured: T/C

CC(=O)OC1CC2C(=S)Nc3cc4c(cc3C(=O)N2C1)OCO4 (stereo unspecified)
inactive: [1] 92 % of control | [2] 91 % of control | [3] 89 % of control

CCCCCCCCC1SC1CCCCCCCC(=O)OCCOCCOCC (stereo unspecified)
inactive: [4] 104 % of control | [5] 104 % of control | dose: 400.0 mg/kg/injection, schedule: Q01DX009 (ip), vehicle: saline with Tween-80 100 % of control

C1C[S][Hg][S]CCO1
inactive: dose: 6.25 mg/kg/injection, schedule: Q01DX009 (ip), vehicle: suspension in saline 105 % of control | dose: 12.5 mg/kg/injection, schedule: Q01DX009 (ip), vehicle: suspension in saline 102 % of control

Cc1cc2nc(-c3cc4cc(Cl)cc(Cl)c4oc3=O)[nH]c2cc1C
inactive: dose: 25.0 mg/kg/injection, schedule: Q01DX005 (ip), vehicle: Klucel (hydroxypropylcellulose) (HPC) 98 % of control | dose: 50.0 mg/kg/injection, schedule: Q01DX005 (ip), vehicle: Klucel (hydroxypropylcellulose) (HPC) 95 % of control | dose: 100.0 mg/kg/injection, schedule: Q01DX005 (ip), vehicle: Klucel (hydroxypropylcellulose) (HPC) 96 % of control | dose: 200.0 mg/kg/injection, schedule: Q01DX005 (ip), vehicle: Klucel (hydroxypropylcellulose) (HPC) 96 % of control

CONc1ccn(C2OC(CO)C(O)C2O)c(=O)n1 (stereo unspecified)
inactive: [6] 101 % of control and 104 % of control | [7] 112 % of control and 117 % of control | [8] 99 % of control and 113 % of control | [9] 112 % of control

CCCCCCCCCC(C)CCCCC (stereo unspecified)
inactive: dose: 25.0 mg/kg/injection, schedule: Q01DX001 (ip), vehicle: saline with Tween-80 90 % of control | dose: 50.0 mg/kg/injection, schedule: Q01DX001 (ip), vehicle: saline with Tween-80 100 % of control | dose: 100.0 mg/kg/injection, schedule: Q01DX001 (ip), vehicle: saline with Tween-80 100 % of control

C=C1C(=O)OC2C1C(OC(=O)/C(C)=C/CO)C/C(C)=C/CCC1(CO)OC21 (stereo unspecified)
inactive: dose: 0.5 mg/kg/injection, schedule: Q01DX009 (ip), vehicle: Klucel (hydroxypropylcellulose) (HPC) 100 % of control | dose: 1.0 mg/kg/injection, schedule: Q01DX009 (ip), vehicle: Klucel (hydroxypropylcellulose) (HPC) 91 % of control | dose: 2.0 mg/kg/injection, schedule: Q01DX009 (ip), vehicle: Klucel (hydroxypropylcellulose) (HPC) 100 % of control | dose: 4.0 mg/kg/injection, schedule: Q01DX009 (ip), vehicle: Klucel (hydroxypropylcellulose) (HPC) 103 % of control and 113 % of control | dose: 8.0 mg/kg/injection, schedule: Q01DX009 (ip), vehicle: Klucel (hydroxypropylcellulose) (HPC) 105 % of control | dose: 16.0 mg/kg/injection, schedule: Q01DX009 (ip), vehicle: Klucel (hydroxypropylcellulose) (HPC) 118 % of control

O=c1c2ccccc2nc2n1OCC2
inactive: [8] 103 % of control | [9] 111 % of control | [10] 111 % of control

COc1ccc(C(=O)Nc2ccccc2CCC2CCCCN2C)cc1 (stereo unspecified)
inactive: dose: 6.25 mg/kg/injection, schedule: Q01DX009 (ip), vehicle: saline 95 % of control | [6] 95 % of control | [7] 92 % of control | dose: 25.0 mg/kg/injection, schedule: Q01DX009 (ip), vehicle: suspension in saline 100 % of control

CON(C)CC(Cl)c1ccccc1 (stereo unspecified)
inactive: dose: 12.5 mg/kg/injection, schedule: Q01DX009 (ip), vehicle: saline with Tween-80 109 % of control | dose: 25.0 mg/kg/injection, schedule: Q01DX009 (ip), vehicle: saline with Tween-80 109 % of control | [11] 104 % of control

CCOC(=O)C1=Nc2cccc3c(O)ccc1c23
inactive: [1] 113 % of control | [2] 109 % of control | [3] 111 % of control

Nc1ncnc2nc(-c3ccc(SCc4ccccc4)cc3)[nH]c12
inactive: [12] 95 % of control | [13] 94 % of control | [14] 93 % of control

COc1cc(C(=O)n2ncc(C(C)=O)c2C)cc(OC)c1OC
inactive: [11] 103 % of control | [4] 106 % of control | [5] 116 % of control

O=[N+]([O-])c1ccc(C(Cl)C2(Br)C=c3ccccc3=C2)cc1 (stereo unspecified)
inactive: dose: 100.0 mg/kg/injection, schedule: Q04DX003 (ip), vehicle: Klucel (hydroxypropylcellulose) (HPC) 100 % of control | dose: 200.0 mg/kg/injection, schedule: Q04DX003 (ip), vehicle: Klucel (hydroxypropylcellulose) (HPC) 100 % of control | dose: 400.0 mg/kg/injection, schedule: Q04DX003 (ip), vehicle: Klucel (hydroxypropylcellulose) (HPC) 95 % of control

O=C(NC(=O)c1cccc2ccccc12)NC(=S)c1cccc2ccccc12
inactive: [15] 103 % of control and 96 % of control | [16] 109 % of control and 95 % of control | dose: 400.0 mg/kg/injection, schedule: Q01DX001 (ip), vehicle: saline 101 % of control and 87 % of control

COc1nc(Cl)nc(OC)n1
inactive: [5] 86 % of control

Cc1cc2c(cc1C)C(=O)CCC(=O)N2
inactive: [12] 102 % of control | [13] 97 % of control | [14] 96 % of control

COC(=O)/N=C/CCC(O)NC(=O)OC (stereo unspecified)
inactive: [1] 98 % of control | [2] 101 % of control | [3] 92 % of control

Cc1cc(C2(c3cc(C)c(O)c(Br)c3)OS(=O)(=O)c3ccccc32)cc(Br)c1O
inactive: [12] 99 % of control | [13] 102 % of control | [14] 90 % of control

C(=Nc1ccccc1)C1CCCC[N-]1.C(=Nc1ccccc1)C1CCCC[N-]1.[Cu+2].[O-][Cl+3]([O-])([O-])O (stereo unspecified)
inactive: dose: 4.5 mg/kg/injection, schedule: Q01DX009 (ip), vehicle: saline with Tween-80 90 % of control | dose: 9.0 mg/kg/injection, schedule: Q01DX009 (ip), vehicle: saline with Tween-80 97 % of control | dose: 18.0 mg/kg/injection, schedule: Q01DX009 (ip), vehicle: saline with Tween-80 97 % of control | dose: 18.75 mg/kg/injection, schedule: Q01DX009 (ip), vehicle: saline with Tween-80 97 % of control | [11] 96 % of control

O[C@@H]1c2sccc2C2NC21 (stereo partly specified)
inactive: dose: 50.0 mg/kg/injection, schedule: Q01DX001 (ip), vehicle: saline 98 % of control | [15] 95 % of control | [16] 98 % of control

Cc1cc(=O)oc2c3c(c4c(c12)OC(C)(C)C=C4)OC(C)(C)C=C3
inactive: [12] 89 % of control | [13] 88 % of control

O=c1ccc(=O)[nH][nH]1
inactive: [7] 102 % of control | [8] 105 % of control and 88 % of control | [9] 99 % of control and 102 % of control | [10] 99 % of control and 100 % of control | dose: 400.0 mg/kg/injection, schedule: Q01DX009 (ip), vehicle: saline 99 % of control and 110 % of control

CN(C)CCOc1ccc2c(c1)C/C(=C/c1ncc([N+](=O)[O-])n1C)C2=O
inactive: dose: 11.0 mg/kg/injection, schedule: Q01DX009 (ip), vehicle: saline with Tween-80 124 % of control | dose: 15.0 mg/kg/injection, schedule: Q01DX009 (ip), vehicle: saline with Tween-80 109 % of control and 117 % of control | dose: 22.0 mg/kg/injection, schedule: Q01DX009 (ip), vehicle: saline with Tween-80 124 % of control | dose: 30.0 mg/kg/injection, schedule: Q01DX009 (ip), vehicle: saline with Tween-80 119 % of control | dose: 60.0 mg/kg/injection, schedule: Q01DX009 (ip), vehicle: saline with Tween-80 117 % of control | dose: 180.0 mg/kg/injection, schedule: Q01DX009 (ip), vehicle: saline with Tween-80 87 % of control
